A value given as a limit tells only on which side of the number the result lay.

Experiment [1] deals with all other forms of liver alcohol dehydrogenase. Description: inhibition of the other (pyrazole-sensitive) forms of liver alcohol dehydrogenase. In kind it is biochemical, human. The source says: (§1) However, purification of these enzymes has been a complicated and difficult procedure. […] Elution is preferably carried out with pyrazole solution or with a lower alkanol having at least two carbon atoms, e.g., ethanol, 1-propanol, 1-butanol, 1-pentanol, and the like. Further purification and separation of isoenzymes from the bound portion can be achieved by alcohol gradient elution. The alcohol dehydrogenase of the bound portion can be separated from the NAD after elution, if desired, by conventional dialysis procedures. […] The anodic band of liver alcohol dehydrogenase, as identified by Li et al., Biochem. Biophys. Res. Comm.

Experiment [2] has as its system other forms of liver alcohol dehydrogenase. To be noted: read-out: Km for ethanol; cited from earlier work.
The target of experiment [3] is T1, II-ADH (anodic band of liver alcohol dehydrogenase) (Homo sapiens, UniProt P08319).
T1 construct: Starting with 100 g frozen human liver; from tissue; host or cells: human liver (frozen), purified
T1 sequence (P08319 2-380 limits assumed): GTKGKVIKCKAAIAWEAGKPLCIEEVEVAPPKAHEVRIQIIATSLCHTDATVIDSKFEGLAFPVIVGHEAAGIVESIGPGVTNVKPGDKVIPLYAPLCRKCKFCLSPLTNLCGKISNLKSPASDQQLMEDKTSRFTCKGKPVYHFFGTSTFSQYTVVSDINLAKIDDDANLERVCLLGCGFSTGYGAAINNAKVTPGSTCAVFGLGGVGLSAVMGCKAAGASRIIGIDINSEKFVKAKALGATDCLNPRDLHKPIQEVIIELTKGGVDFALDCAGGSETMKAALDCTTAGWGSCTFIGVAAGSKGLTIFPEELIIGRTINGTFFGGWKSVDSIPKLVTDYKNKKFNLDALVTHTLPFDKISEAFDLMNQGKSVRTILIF
In kind it is biochemical. The note with it: pH 7.5; read-out: Km for ethanol.
From the text: as §1

Experiment [4] has as its system human liver alcohol dehydrogenase. Description: inhibition of alcohol dehydrogenase activity of frozen human liver starting material. The experiment is classed as biochemical. The note with it: 33 micromolar, pH 10, frozen human liver. Here is the method: Starting with 100 g frozen human liver having a specific activity at pH 10 of about 0.05 I.U./mg and low inhibition (~ 75%) by 33 micromolar 4-methyl-pyrazole at pH 10 as well as high intensity of stain for the anodic band on starch gel electrophoresis, the liver was homogenized in 2.5 volumes water at 4° C., centrifuged for 30 min. at 30,000 rpm in a 30 rotor to provide 240 ml. of clear supernatant assaying at 58 I.U. of pyrazole-insensitive activity with a specific activity of 0.002 I.U./mg.

Experiment [5] concerns the target T1, II-ADH (anodic band of liver alcohol dehydrogenase). Put plainly: inhibition of purified II-ADH (anodic band, pyrazole-insensitive liver alcohol dehydrogenase) activity. In kind it is biochemical.
From the text: as §1

`c1cn[nH]c1` [pyrazole] gave a Ki in experiment [1] (all other forms of liver alcohol dehydrogenase) below 1000 nM.
As for `CCO` [ethanol], the Km is at most 1 mM in experiment [2] and 15 to 30 mM in experiment [3].
For the molecule `Cc1cn[nH]c1` [4-methylpyrazole], the inhibition of activity entry in experiment [1] (0.2 mM 4-methylpyrazole, 100 mM ethanol, remainder of purified enzyme forms) is on record as “more than 90%”. Further, the inhibition was ~ 75% in experiment [4] and “virtually uninhibited” in experiment [5] (33 micromolar, product after agarose-AMP). Also, the inhibition at 200 µM in experiment [5] (0.2 mM 4-methylpyrazole, 100 mM ethanol, purified II-ADH) was below 10%. The Vi/Vc in experiment [5] (eluant (effluent) of pyrazole affinity resin containing the anodic band) is recorded as 95-100%.

Usually Ki stands for the dissociation constant of the complex between target and ligand, obtained from inhibition or displacement. As a reminder, the Km is the substrate concentration at which the rate is half of its maximum. One may read the inhibition as the relative decrease from the control value, in per cent. The low end stands for little suppression, the high end for strong suppression.

The values are drawn from patent publication US4111751A, “Method of purifying alcohol dehydrogenase” (President and Fellows of Harvard College, priority 1977, dated 1978).
